Reference: patent publication US20250269041A1, “Mutual Prodrugs of Cromoglicic Acid” (Samdolite Pharmaceuticals, Inc., priority 2022, published 2025)
Where two headings read alike, the source gives them in different places.

How the values were obtained:
[1] = Description: Shed snakeskin, which is a model membrane to human skin used for preliminary permeability studies due to its similarity in composition to the human stratum corneum, was used as a skin model. The solution in the receiver compartment was maintained at 37° C. and stirred at 500 rpm with a magnetic stirrer. Before each experiment, the shed snakeskin was hydrated in 7.4 pH Dulbecco's Phosphate Buffered Saline (DPBS) containing 0.1% sodium azide solution for 24 hours at room temperature.
To emulate the esterase activity of human skin, a “sandwich” of shed snakeskin from a black rat snake (Pantherophis obsoletus) and a dialysis membrane with a molecular weight cut-off of 3.5 kDa (Cole-Palmer, Spectra Por S/P 3 EW-02900-04) was designed. Recombinant Human Carboxylesterase 2/CES2 (R&D Systems, #5657-CE) at a concentration 50 μg/mL was added between the snakeskin and the dialysis membrane (FIG. 1). A diffusion area of 0.64 cm^2 and a volume of 2 mL in the donor and receiver compartments were used. The temperature in Franz cell was controlled via thermocouple probe IT-23 (World Precision Instruments, Sarasota, FL, USA) placed in receiver compartment below the membrane “sandwich” through the sampling arm. All tested compounds were solubilized in 50% polyethylene glycol 400 (PEG 400)/DPBS at 25 mg/mL. PEG 400 was used to increase the water solubility of diethyl cromoglycate, cetirizine ethyl ester and cetirizine cromoglycate.
The system was allowed to equilibrate for one hour before each experiment. […] The receiver compartment was filled with 2 mL of 50% w/w polyethylene glycol 400 in DPBS to maintain a sink condition in the receiver solution. A sample was manually taken at 1-hour intervals from the receptor compartment and replaced with fresh DPBS at each time point. The concentration of drugs and their cumulative amount was plotted against time. Each experiment with each compound was performed in triplicate. The amount of the drug in the sample was estimated spectrophotometrically (NanoDrop™ UV-Visible spectrophotometer, Thermo Fisher Scientific Inc.). Light absorption was plotted as a function of concentration and fitted with a linear regression equation.

[2] = normal pH of 7.4; cited from earlier work
[3] = black rat snake (Pantherophis obsoletus), 0 h, 25 mg/mL
[4] = black rat snake (Pantherophis obsoletus), 25 mg/mL
[5] = black rat snake (Pantherophis obsoletus), 1 h, 25 mg/mL
[6] = black rat snake (Pantherophis obsoletus), 2 h, 25 mg/mL
[7] = black rat snake (Pantherophis obsoletus), 3 h, 25 mg/mL
[8] = black rat snake (Pantherophis obsoletus), 4 h, 25 mg/mL
[9] = black rat snake (Pantherophis obsoletus), 5 h, 25 mg/mL
[10] = black rat snake (Pantherophis obsoletus), 6 h, 25 mg/mL
[11] = black rat snake (Pantherophis obsoletus), 7 h, 25 mg/mL
[12] = black rat snake (Pantherophis obsoletus), 8 h, 25 mg/mL
[13] = black rat snake (Pantherophis obsoletus), 9 h, 25 mg/mL
[14] = black rat snake (Pantherophis obsoletus), 10 h, 25 mg/mL
[15] = black rat snake (Pantherophis obsoletus), 11 h, 25 mg/mL
[16] = black rat snake (Pantherophis obsoletus), 12 h, 25 mg/mL

Row | mean lag times across shed snakeskin [1] | Cumulative concentration per unit area [1, 3] | permeation across the shed snakeskin, times lower than the permeation of the lipophilic prodrug [1, 4] | Cumulative concentration per unit area [1, 5] | Cumulative concentration per unit area [1, 6] | Cumulative concentration per unit area [1, 7] | Cumulative concentration per unit area [1, 8] | Cumulative concentration per unit area [1, 9] | Cumulative concentration per unit area [1, 10] | Cumulative concentration per unit area [1, 11] | Cumulative concentration per unit area [1, 12] | Cumulative concentration per unit area [1, 13] | Cumulative concentration per unit area [1, 14] | Cumulative concentration per unit area [1, 15] | Cumulative concentration per unit area [1, 16] | mean lag times across shed snakeskin [1, 4] | transport compared with the permeation of lipophilic prodrugs diethyl cromoglycate and cetirizine ethyl ester [1] | Compound | logP [2]
1 | 0.15 to 0.25 h |  |  |  |  |  |  |  |  |  |  |  |  |  |  |  |  | CCOC(=O)COCCN1CCN(C(c2ccccc2)c2ccc(Cl)cc2)CC1 (stereo not drawn) [Cetirizine Ethyl Ester, reference compound] | 
2 |  | 0 μg/cm^2 | 3.5-5 times | 5 μg/cm^2 | 15 μg/cm^2 | 25 μg/cm^2 | 30 μg/cm^2 | 45 μg/cm^2 | 50 μg/cm^2 | 73 μg/cm^2 | 80 μg/cm^2 | 93 μg/cm^2 | 98 μg/cm^2 | 112 μg/cm^2 | 119 μg/cm^2 |  |  | O=C(O)c1cc(=O)c2c(OCC(O)COc3cccc4oc(C(=O)O)cc(=O)c34)cccc2o1 [Cromoglicate Sodium, Cromoglicate sodium, reference compound] | −4.8
3 |  | 0 μg/cm^2 |  | 23 μg/cm^2 | 55 μg/cm^2 | 95 μg/cm^2 | 145 μg/cm^2 | 195 μg/cm^2 | 235 μg/cm^2 | 256 μg/cm^2 | 320 μg/cm^2 | 390 μg/cm^2 | 435 μg/cm^2 | 470 μg/cm^2 | 495 μg/cm^2 | 0.15 to 0.25 h |  | CCOC(=O)c1cc(=O)c2c(OCC(O)COc3cccc4oc(C(=O)OCC)cc(=O)c34)cccc2o1 [Example 50, Diethyl Cromoglicate] | 
4 |  | 0 μg/cm^2 |  | 2 μg/cm^2 | 12 μg/cm^2 | 28 μg/cm^2 | 53 μg/cm^2 | 89 μg/cm^2 | 112 μg/cm^2 | 142 μg/cm^2 | 176 μg/cm^2 | 215 μg/cm^2 | 256 μg/cm^2 | 295 μg/cm^2 | 350 μg/cm^2 | 0.55 to 1.15 h | lower | O=C(COCCN1CCN(C(c2ccccc2)c2ccc(Cl)cc2)CC1)OC(COc1cccc2oc(C(=O)O)cc(=O)c12)COc1cccc2oc(C(=O)O)cc(=O)c12 (stereo not drawn) [Example 3] | 
